Test results reported in patent US20090099187A1, “Novel 8-Sulfonyl-3 Aminosubstituted Chroman or Tetrahydronaphtalene Derivatives Modulating the 5HT6 Receptor” (AstraZeneca AB, priority 2005, published 2009).

molecular target: rat striatal 5HT6 receptors (Rattus norvegicus, UniProt P31388)
Sequence (P31388 whole entry): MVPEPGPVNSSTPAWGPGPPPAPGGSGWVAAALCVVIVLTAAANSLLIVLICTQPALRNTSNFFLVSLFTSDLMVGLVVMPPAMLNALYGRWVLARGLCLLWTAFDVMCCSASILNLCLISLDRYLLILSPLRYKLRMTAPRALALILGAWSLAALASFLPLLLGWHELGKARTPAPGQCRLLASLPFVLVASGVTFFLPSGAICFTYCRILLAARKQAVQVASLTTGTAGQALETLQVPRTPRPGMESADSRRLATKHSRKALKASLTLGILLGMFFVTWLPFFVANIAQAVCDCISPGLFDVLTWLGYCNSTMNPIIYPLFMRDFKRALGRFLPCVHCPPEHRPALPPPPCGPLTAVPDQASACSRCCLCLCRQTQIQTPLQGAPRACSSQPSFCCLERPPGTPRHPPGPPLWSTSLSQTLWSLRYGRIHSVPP
Experimental: Striatal tissue from adult rats (Sprague-Dawley, 320-370 g, B & K Sweden) were dissected out, weighed and homogenized in buffer containing 50 mM Tris-HCl, 4 mM MgCl2, 1 mM EDTA, 10 μM pargyline and protease inhibitor (Complete, Roche Diagnostics) pH 7.4 using an Ultra-Turrax T8 (IKA Labortechnik, Germany). The tissue homogenate was centrifuged at 48 000×g for 10 min and the pellet was resuspended and recentrifuged as above. The final membranes were diluted in buffer to a concentration of 60 mg original wet weight (w.w.) per ml and stored in aliquots at −70° C.
Non-specific binding was determined in the presence of 10 μM methiothepin. In the competition experiments 0.8-2 mg w.w. per tube and a radioligand concentration of 0.5-1 nM were used with 7 concentrations of the competing drug pre-dissolved in DMSO and diluted in buffer. The assays were incubated for 1-3 hours at room temperature, and terminated by rapid filtration through Whatman GF/B filters pretreated with 0.3% polyethyleneimine using a Brandel cell harvester. The radioactivity was determined in a Packard Tri-Carb 2900TR liquid scintillation counter. Data were analyzed by non-linear regression analyses using PRISM 4.00 (GraphPad Software Inc., San Diego, Calif.).

| Structure (SMILES) | Ki |
| --- | --- |
| CN[C@H]1CCc2c(S(=O)(=O)Nc3ccc(Cl)cc3)ccc(OC)c2C1 [Example 25, (6S)—N-(4-chlorophenyl)-4-methoxy-6-(methylamino)-5,6,7,8-tetrahydronaphthalene-1-sulfonamide] | 12 ± 4.2 nM |
| COc1ccc(Cl)cc1NS(=O)(=O)c1ccc(OC)c2c1CC[C@H](N(C)C)C2 [Example 1, (6S)—N-(5-Chloro-2-methoxyphenyl)-6-(dimethylamino)-4-methoxy-5,6,7,8-tetrahydronaphthalene-1-sulfonamide] | 1.7 ± 0.6 nM |
| COc1ccc(S(=O)(=O)N2CCc3ccccc3C2)c2c1C[C@@H](N(C)C)CC2 [Example 21, [5-(3,4-Dihydro-1H-isoquinoline-2-sulfonyl)-8-methoxy-1,2,3,4-tetrahydro-naphthalen-2-yl]-dimethyl-amine] | 4.2 ± 1.4 nM |
| COc1ccc(Cl)cc1NS(=O)(=O)c1ccc(OC)c2c1OC[C@H](N(C)C)C2 [Example 60, (3R)—N-(5-Chloro-2-methoxyphenyl)-3-(dimethylamino)-5-methoxychromane-8-sulfonamide] | 2.3 ± 1.3 nM |
| COc1ccc(S(=O)(=O)Nc2ccccn2)c2c1C[C@@H](N(C)C)CC2 [Example 18, (6S)-6-(Dimethylamino)-4-methoxy-N-pyridin-2-yl-5,6,7,8-tetrahydronaphthalene-1-sulfonamide] | 17 ± 5 nM |

The remaining lines, values ahead:

| Ki | Structure (SMILES) |
| --- | --- |
| 290 ± 50 nM | CCc1ccc(S(=O)(=O)Nc2ccc(F)c(Cl)c2)c2c1C[C@@H](N(C)C)CO2 [Example 72, (3R)—N-(3-Chloro-4-fluorophenyl)-3-(dimethylamino)-5-ethylchromane-8-sulfonamide] |
| 30 ± 7 nM | CN[C@H]1COc2c(S(=O)(=O)Nc3ccccc3)ccc(OC)c2C1 [Example 71, (3R)-5-Methoxy-3-(methylamino)-N-phenylchromane-8-sulfonamide] |
| 27 ± 16 nM | COc1ccc(S(=O)(=O)Nc2cc(Cl)cc(Cl)c2)c2c1C[C@@H](N1CCCC1)CO2 [Example 69, (3R)—N-(3,5-Dichlorophenyl)-5-methoxy-3-pyrrolidin-1-ylchromane-8-sulfonamide] |
